The record followed here is patent publication US20100305201A1 (The Trustees of the University of Pennsylvania, priority 2006, published 2010).

Each structure is given as a SMILES string.

For one series, the system named is A549 tumor xenografts. Nature of the series: Tumor study with single tail-vein injection (Example 3). The note with it: one week after single injection, 1 mg kg^−1 in ethanol (MTD).
Series [1] is described as follows: Maximum tolerated dose (MTD) determination. The note with it: nude mice, dose that causes 10% weight loss within 24 h (Example 3).
Another series is described as follows: in vivo. The note with it: Nrc nude, mouse.
Series [2] concerns Human lung-derived carcinoma cells A549. Briefly: Cytotoxicity assay (MTT). The format is cell-based. The note with it: 72 h, sigmoid dose-response fit. Here is the method:
Cytotoxicity Assay. TAX-loaded and drug-free micelles at serial dilutions were prepared as above. For comparison, 12 mg/ml TAX in ethanol was mixed with an equal volume of Cremophor® EL followed by sonication for 30 min. The resulting Cremophor EL TAX was diluted with DPBS to obtain desired TAX concentrations. Human lung-derived carcinoma cells A549 were grown in F12 Ham media supplemented with 10% fetal bovine serum and 100 U/ml penicillin and 100 μg/ml streptomycin at 37° C., 5% CO2 to 60-70% confluence. A549 cells (50,000 cell/ml) were seeded in 96-well plates at 5,000 cells per well and cultured for 24 h to allow attachment. […] As control, […] of DPBS was added to cells not exposed to those formulations. After 37° C., 5% CO2 incubation for 72 h, the media were discarded, and 100 μl/well F12 Ham medium and 11 μl/well of 5 mg/ml MTT solution in DPBS was added. The plates were incubated at 37° C. for 3 h and the media were removed again. The intracellular metabolized product MTT formazan was retrieved by addition of 100 μl/well DMSO and incubation at room temperature for 5 min. The plates were read at 550 nm, and the cell viability was calculated as (reading of wells with cells exposed to tested formulations minus the reading of the blank wells) divided by (reading of wells with cells exposed to DPBS minus the reading of the blank wells).
Data Analysis. […]

The test system of series [3] is lung carcinoma A549 tumors. Briefly: Tumor shrinkage study, multiple injections. The format is in vivo, mice. The protocol: Tumor shrinkage studies. Human lung carcinoma cell line, A549, was injected subcutaneously at […] per mouse. […] The same injections were repeated after 3, 7, 10, 14, 17 and 21 days. Tumor area (A) was monitored 24 hrs after each injection by measuring two orthogonal dimensions as A=[(L1×L2)/2] for each treatment group. The body weight of the mice was also monitored throughout the experiment.
The tumor shrinkage effect of different carriers was also examined in a multiple-injection experiment. […] TAX in DPBS solution was also used for comparison, with the MTD of 1 mg/kg injected. […] It should be noted here that the weight gaining due to tumor growth (if possible) for all groups was minimal, wherein the largest tumor area gained after 3 weeks was 0.4 cm^2 (FIG. 6A), corresponding to an approximate volume of 0.2 cm^3 (assuming the tumor was spherical in shape). This would have contributed to only 0.2 g of the total weight (assuming the density of tumor is 1 g/ml).
To evaluate the tumor inhibition effect of the different TAX delivery methods in a more quantitative way, the TAX-inhibited tumor growth vs. time plot was fit by applying an exponential model (Simeoni et al., Cancer Res. 64:1094-101 (2004)), incorporating both a tumor growth phase and a tumor shrinkage phase with the TAX addition. The modeling was performed by fit the parameters in the equation (Table 4):
Tumor Area=Σ Ae^t/growth+Be^−t/shrink Equation 7
where t is the time (day), A and tgrowth are constants of the tumor growth phase, and B and tshrink are constants of the TAX-inhibition phase.

Setting [4] is: exponential model of TAX-inhibited A549 tumor area vs time, injections at MTD.

Description for A549 tumor xenografts: Briefly, cultured cells were injected subcutaneously onto the backs of nude mice and allowed to grow until they reached a mean size of 0.52 cm^2 (±0.02 em^2). […] Each group consisted of four mice.
Description for in vivo: Nrc nude mice were weighed followed by a single tail vein injection of either empty OCL3 micelles and TAX-loaded micelles in different concentrations at 0.2 ml per mouse. After 24 hours, the mice were weighed again. The “maximum tolerated dose” (MTD) was determined to be, and defined as, the dose that caused the mouse body weight loss<10%.

In the case of `CC(=O)O[C@H]1C(=O)[C@@]2(C)[C@H]([C@H](OC(=O)c3ccccc3)[C@]3(O)C[C@H](OC(=O)[C@H](O)[C@@H](NC(=O)c4ccccc4)c4ccccc4)C(C)=C1C3(C)C)[C@]1(OC(C)=O)CO[C@@H]1C[C@@H]2O` [TAX, Paclitaxel], the “apoptosis in tumor (TUNEL-stained tumor sections)” value with A549 tumor xenografts is recorded as “little effect”. In series [1], the “maximum tolerated dose (MTD)” value turned out to be 1 mg/kg. Moreover, in “in vivo”, the MTD at 24 h was 1 mg/kg. Further, in series [2], the midpoint of inhibition, the IC50, lay at 0.321 µM. Further, the “tumor growth inhibition (in words)” value in series [3] (A549-bearing mice, multiple injections at MTD, 22 days) was “modest inhibition of tumor growth”. Further, in series [3] (setting [4]), the “A, constant of the tumor growth phase” value is 0.014 cm^2; the “B, constant of the TAX-inhibition phase” value amounted to 0.178 cm^2; the “tgrowth, constant of the tumor growth phase” value is on record as 1.2 week; the “tshrink, constant of the TAX-inhibition phase” value is 8.8 week.
